Reference: article PMC7176092, “Development of the first in vivo GPR17 ligand through an iterative drug discovery pipeline: A novel disease-modifying strategy for multiple sclerosis” (PLoS ONE, 2020)
Where two headings read alike, the source gives them in different places.

How the values were obtained:
[1] = Single dose time course study in plasma and brain, 10 mg/kg subcutaneous; assay type: in vivo, mouse; details: 10 mg/kg s.c. single dose, C57BL/6 male mice
Description: Afterwards, the presence of the top compound in the brain was assessed in a single dose time course study consisting of a subcutaneous administration of a 10 mg/kg dose (15% Ethanol, 85% PEG400) to 24 naïve C57BL/6 male mice. Eight time-points (n = 3/time-point) were drawn over 24 hours after dosing. Each animal was sampled for blood collection at two time-points (the first via a tail vein, the second via cardiac puncture under anaesthesia). Blood samples were collected and centrifuged to prepare plasma according to standard procedures and stored at approximately -20°C, pending analysis (n = 48 samples). The brain of each animal was collected at sacrifice and analysed alongside plasma samples for compound quantification (n = 24 samples). Plasma and brain homogenate samples were analysed for test compound quantification using an optimised method based on protein precipitation followed by HPLC-MS/MS analysis. The results for test substance in plasma and brain homogenates were subjected to non-compartmental PK analysis using WinNonlin Phoenix v.6.3 for generation of appropriate pharmacokinetic parameters to be reported along with graphical representation of the mean plasma concentration profiles over time.

CX3CR1 = target: T1, CX3CR1 (Homo sapiens, UniProt P49238); test: Cellular functional assay CX3CR1
T1 sequence (P49238 1-355): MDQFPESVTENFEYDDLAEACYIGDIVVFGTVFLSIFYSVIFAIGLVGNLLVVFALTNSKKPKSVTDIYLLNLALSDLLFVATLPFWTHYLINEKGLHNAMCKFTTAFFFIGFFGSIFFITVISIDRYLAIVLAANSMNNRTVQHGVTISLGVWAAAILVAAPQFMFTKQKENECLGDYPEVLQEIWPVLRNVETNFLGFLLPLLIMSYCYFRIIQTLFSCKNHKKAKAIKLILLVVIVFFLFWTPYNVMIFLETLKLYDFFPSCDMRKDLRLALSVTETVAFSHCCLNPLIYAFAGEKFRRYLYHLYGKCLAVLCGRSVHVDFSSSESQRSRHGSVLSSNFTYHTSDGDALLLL

Tlast ([1]; brain): 6.00 h
AUC(0-t) ([1]; mouse, sc, brain): 205 ng·h/mL
Cmax ([1]; mouse, sc, brain): 270 ng/mL
Tmax ([1]; mouse, sc, brain): 15 min
concentration at 6 h ([1]; mouse, sc, brain, read-out: Clast): 5.8 ng/mL
AUC(0-t) ([1]; mouse, sc, plasma): 3930 ng·h/mL
Cmax ([1]; mouse, sc, plasma): 6520 ng/mL
Tmax ([1]; mouse, sc, plasma): 15 min
concentration at 8 h ([1]; mouse, sc, plasma, read-out: Clast): 17.4 ng/mL
Tlast ([1]; plasma): 8.00 h
Agonist Response (% of Control) (CX3CR1; antagonist effect, 100 nM, single replicates 1st and 2nd, 0.1 µM): 105.4%
inhibition at 0.1 µM (CX3CR1; read-out: % Inhibition of control agonist response): 0.2%
activity at 0.1 µM (CX3CR1; read-out: Agonist Response (% of Control), Mean, antagonist effect, 100 nM, mean of 2): 107%
activity at 0.1 µM (CX3CR1; read-out: Agonist Response (% of Control), antagonist effect, 100 nM, single replicates 1st and 2nd): 110%
SMILES: Cc1ccc(-c2nnc(SCC(=O)Nc3nccs3)[nH]2)cc1 [Compound 9]
